Data from PMC3731256, “Optimization of Substituted 6-Salicyl-4-Anilinoquinazoline Derivatives as Dual EGFR/HER2 Tyrosine Kinase Inhibitors” (PLoS ONE, 2013).
Like-named read-outs stand apart in the source and are kept apart here.

Legend:
MCF-7 cells = assay: Antiproliferation WST-1 assay, MCF-7; type: cell-based, human
Description: (§1) WST-1 is better than MTT for analyzing cell proliferation, because it can be reduced to soluble formazan by dehydrogenase in mitochondria and has little toxicity to cells. Cell proliferation was determined using WST-1 dye (Beyotime Inst Biotech, China) according to manufacture’s instructions. Brieﬂy, 5 × 10^3 cells per well were seeded in a 96-well plate, grown at 37 ℃ for 24 h, and then placed in serum-starved conditions for a further 6 h. Subsequently, cells were treated with compounds (Table 1) at increasing concentrations in the presence of 10% FBS for 24 or 48h. After 10 µL WST-1 dye was added to each well, cells were incubated at 37 ℃ for 2 h and the absorbance was ﬁnally determined at 450 nm using a microplate reader.

A431 cells = assay: Antiproliferation WST-1 assay, A431; type: cell-based, human
Description: as §1

A549 cells = assay: Antiproliferation WST-1 assay, A549; type: cell-based, human
Description: as §1

human EGFR = biological target: T1, human EGFR (Homo sapiens, UniProt P00533); assay: EGFR kinase assay ([γ-32P] ATP, poly-Glu-Tyr); type: biochemical; conditions: phosphorylation of poly-Glu-Tyr copolymer; mean, >1 determination; read-out: Enzyme activity IC50 against EGFR kinase
T1 construct: the cytoplasmic domain (amino acids 669-1210) of human EGFR; FLAG (DYKDDDD) (N); made in house
Description: (§2) The expressed HER2 kinase and EGFR kinase were purified by anti-FLAG M2 affinity gel (Sigma-Aldrich, USA). The HER2 and EGFR kinase assays were performed using radiolabeled [γ-^32P] ATP (GEHealthcare, USA) in 96-well plates. The kinase reactions were performed in 50 mmol/L Tris-HCl, pH7.5, 5 mmol/L MnCl2, 0.01% Tween-20 and 2 mmol/L DTT containing 0.9 μCi of [γ-^32P] ATP per reaction, 50 μmol/L ATP, 5 μg/mL poly-Glu-Tyr (4:1) and 0.25 μg/mL of purified Her2 or EGFR cytoplasmic domain in a total volume of 50 μL. […] Kinase reactions were initiated by adding ATP. After the kinase reaction incubated for 10 minutes at room temperature, reactions were terminated by the addition of 10% (final concentration) trichloroacetic acid. The [γ-^32P]-phosphorylated proteins were filtered in a harvest plate (Millipore, USA) with a cell harvester (PerkinElmer, USA) and washed free of [γ-^32P] ATP with 3% phosphoric acid. The plates were dried, followed by the addition of 25 μL of MicroScintO (PerkinElmer, USA). Radioactivity was counted by a Topcount scintillation counter (PerkinElmer, USA).

human HER2 = biological target: T2, human HER2 (Homo sapiens, UniProt P04626); assay: HER2 kinase assay ([γ-32P] ATP, poly-Glu-Tyr); type: biochemical; conditions: phosphorylation of poly-Glu-Tyr copolymer; mean, >1 determination; read-out: Enzyme activity IC50 against HER2 kinase
T2 construct: The cytoplasmic domain (amino acids 676-1255) of human HER2; FLAG (DYKDDDD) (N); made in house
Description: as §2

H1975 cells = assay: Antiproliferation WST-1 assay, H1975; type: cell-based; conditions: Homo sapiens, NCI-H1975, NSCLC, EGFR L858R/T790M
Description: as §1

MDA-MB-453 cells = assay: Antiproliferation WST-1 assay, MDA-MB-453; type: cell-based; conditions: Homo sapiens, breast cancer, HER-2++, PTEN deficiency
Description: as §1

H1781 cells = assay: Antiproliferation WST-1 assay, H1781; type: cell-based; conditions: NCI-H1781, NSCLC, HER-2 G776ins V_G/C, lapatinib-resistant
Description: as §1

[1] = Homo sapiens, MCF7, WST-1 assay, MCF-7 breast cancer, Her2/neu overexpression, read-out: Cellular IC50, MCF-7
[2] = WST-1 assay, MCF-7 breast cancer, Her2/neu overexpression, read-out: Cellular IC50, MCF-7
[3] = WST-1 assay, A549 carcinomic human alveolar basal epithelial cell, read-out: Cellular IC50, A549
[4] = Homo sapiens, A-431, WST-1 assay, A431, overexpression of EGFR, read-out: Cellular IC50, A431
[5] = WST-1 assay, A431, overexpression of EGFR, read-out: Cellular IC50, A431
[6] = Homo sapiens, MCF7, read-out: Cellular IC50, MCF-7
[7] = Homo sapiens, A549, read-out: Cellular IC50, A549

T1 sequence (P00533 669-1210): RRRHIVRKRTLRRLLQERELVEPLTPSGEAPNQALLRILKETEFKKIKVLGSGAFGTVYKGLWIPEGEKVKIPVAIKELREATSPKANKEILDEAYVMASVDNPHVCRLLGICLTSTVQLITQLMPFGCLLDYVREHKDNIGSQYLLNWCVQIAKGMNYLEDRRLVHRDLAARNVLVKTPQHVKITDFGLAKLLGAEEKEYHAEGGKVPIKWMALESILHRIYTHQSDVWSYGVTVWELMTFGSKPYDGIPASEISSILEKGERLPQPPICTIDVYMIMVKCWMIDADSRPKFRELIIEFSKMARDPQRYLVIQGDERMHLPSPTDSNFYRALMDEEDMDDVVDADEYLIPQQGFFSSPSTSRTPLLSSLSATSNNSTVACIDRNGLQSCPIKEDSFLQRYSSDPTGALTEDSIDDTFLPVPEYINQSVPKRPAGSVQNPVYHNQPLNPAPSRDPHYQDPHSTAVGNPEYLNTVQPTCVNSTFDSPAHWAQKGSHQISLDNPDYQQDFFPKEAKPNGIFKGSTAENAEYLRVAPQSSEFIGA
T2 sequence (P04626 676-1255): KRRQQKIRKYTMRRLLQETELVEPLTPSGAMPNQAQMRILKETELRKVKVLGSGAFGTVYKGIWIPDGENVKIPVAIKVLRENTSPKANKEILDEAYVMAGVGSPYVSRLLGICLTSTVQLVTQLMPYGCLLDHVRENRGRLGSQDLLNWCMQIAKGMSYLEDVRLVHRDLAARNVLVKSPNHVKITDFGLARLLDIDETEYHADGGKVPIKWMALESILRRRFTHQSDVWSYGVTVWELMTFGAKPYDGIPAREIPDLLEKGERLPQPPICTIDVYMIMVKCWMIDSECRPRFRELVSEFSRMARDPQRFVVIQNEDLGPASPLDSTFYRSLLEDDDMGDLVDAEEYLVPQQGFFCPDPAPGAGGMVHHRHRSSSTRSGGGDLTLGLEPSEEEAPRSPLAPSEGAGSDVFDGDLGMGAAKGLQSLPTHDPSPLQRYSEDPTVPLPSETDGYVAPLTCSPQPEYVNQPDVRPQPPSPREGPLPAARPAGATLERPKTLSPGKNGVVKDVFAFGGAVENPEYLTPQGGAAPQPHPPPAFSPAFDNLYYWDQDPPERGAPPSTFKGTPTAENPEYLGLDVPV

| Structure (SMILES) | IC50 (MCF-7 cells; [1]) [nM] | IC50 (A431 cells; Homo sapiens, A-431, read-out: Cellular IC50, A431) [nM] | IC50 (MCF-7 cells; [2]) [nM] | IC50 (A549 cells; [3]) [nM] | IC50 (human EGFR) [nM] | IC50 (A431 cells; [4]) [nM] | IC50 (A431 cells; [5]) [nM] | IC50 (human HER2) [nM] | melting point [°C] | IC50 (MCF-7 cells; [6]) [nM] | IC50 (A549 cells; [7]) [nM] | IC50 (H1975 cells) [µM] | IC50 (MDA-MB-453 cells) [nM] | IC50 (H1781 cells) [nM] |
| --- | --- | --- | --- | --- | --- | --- | --- | --- | --- | --- | --- | --- | --- | --- |
| Nc1ccc2ncnc(Nc3cccc(Br)c3)c2c1 [Compound 7, N4-(3-bromophenyl)quinazoline-4,6-diamine] | < 1000 | < 1000 |  |  |  |  |  |  |  |  |  |  |  |  |
| Oc1ccc(Cl)cc1CNc1ccc2ncnc(Nc3cccc(Br)c3)c2c1 [Compound 9, 2-((4-(3-bromophenylamino)quinazolin-6-ylamino)methyl)-4-chlorophenol] | < 1000 |  | 770 ± 8 | 2370 ± 89 | 410 ± 24 | < 1000 | 980 ± 3 | 1700 ± 51 | 230 to 232 |  |  |  |  |  |
| Oc1c(Cl)cc(Cl)cc1CNc1ccc2ncnc(Nc3cccc(Br)c3)c2c1 [Compound 10, 2-((4-(3-bromophenylamino)quinazolin-6-ylamino)methyl)-4,6-dichlorophenol] | 840 ± 4 |  |  | 1930 ± 71 | 720 ± 36 | 1030 ± 27 |  | 1100 ± 95 | 214 to 216 |  |  |  |  |  |
| Oc1ccc(Br)cc1CNc1ccc2ncnc(Nc3cccc(Br)c3)c2c1 [Compound 11, 4-bromo-2-((4-(3-bromophenylamino)quinazolin-6-ylamino)methyl)phenol] | 900 ± 18 |  |  | 2130 ± 128 | 570 ± 8 | 870 ± 9 |  | 1400 ± 3 | 189 to 191 |  |  |  |  |  |
| Oc1c(Br)cc(Br)cc1CNc1ccc2ncnc(Nc3cccc(Br)c3)c2c1 [Compound 12, 2,4-dibromo-6-((4-(3-bromophenylamino)quinazolin-6-ylamino)methyl)phenol] | < 1000 |  | 1070 ± 16 | 1820 ± 62 | 950 ± 72 | < 1000 | 1140 ± 36 | 980 ± 2 | 169 to 171 |  |  |  |  |  |
| Oc1ccc(Cl)cc1CNc1ccc2ncnc(Nc3cccc(Cl)c3)c2c1 [Compound 13, 4-chloro-2-((4-(3-chlorophenylamino)quinazolin-6-ylamino)methyl)phenol] | < 1000 |  | 920 ± 12 | 2170 ± 49 | 830 ± 65 | < 1000 | 1260 ± 51 | 2300 ± 34 | 238 to 240 |  |  |  |  |  |
| Oc1c(Cl)cc(Cl)cc1CNc1ccc2ncnc(Nc3cccc(Cl)c3)c2c1 [Compound 14, 2,4-dichloro-6-((4-(3-chlorophenylamino)quinazolin-6-ylamino)methyl)phenol] | 800 ± 5 |  |  | 1590 ± 38 | 650 ± 9 | 920 ± 62 |  | 920 ± 9 | 211 to 213 |  |  |  |  |  |
| Oc1ccc(Br)cc1CNc1ccc2ncnc(Nc3cccc(Cl)c3)c2c1 [Compound 15, 4-bromo-2-((4-(3-chlorophenylamino)quinazolin-6-ylamino)methyl)phenol] | 810 ± 33 |  |  | 2120 ± 22 | 760 ± 73 | 960 ± 5 |  | 3800 ± 2 | 227 to 229 |  |  |  |  |  |
| Oc1c(Br)cc(Br)cc1CNc1ccc2ncnc(Nc3cccc(Cl)c3)c2c1 [Compound 16, 2,4-dibromo-6-((4-(3-chlorophenylamino)quinazolin-6-ylamino)methyl)phenol] | 990 ± 6 |  |  | 1650 ± 94 | 890 ± 53 | 1320 ± 126 |  | 2100 ± 8.7 | 207 to 209 |  |  |  |  |  |
| O=C(Nc1ccc2ncnc(Nc3cccc(Br)c3)c2c1)c1ccc(Cl)cc1O [Compound 17, N-(4-(3-bromophenylamino)quinazolin-6-yl)-4-chloro-2-hydroxybenzamide] | 1210 ± 29 |  |  | 1590 ± 35 | 1200 ± 71 | 1460 ± 27 |  | 2800 ± 3.1 | 274 to 277 |  |  |  |  |  |
| O=C(Nc1ccc2ncnc(Nc3cccc(Br)c3)c2c1)c1cc(Br)ccc1O [Compound 18, 5-bromo-N-(4-(3-bromophenylamino)quinazolin-6-yl)-2-hydroxybenzamide] | 1230 ± 35 |  |  | 800 ± 4 | 1300 ± 98 | 1620 ± 8 |  | 1600 ± 12 | 297 to 299 |  |  |  |  |  |
| O=C(Nc1ccc2ncnc(Nc3cccc(Br)c3)c2c1)c1cc(Cl)ccc1O [Compound 19, N-(4-(3-bromophenylamino)quinazolin-6-yl)-5-chloro-2-hydroxybenzamide] | 1120 ± 87 |  |  | 1770 ± 56 | 1070 ± 18 | 1280 ± 13 |  | 1800 ± 9 | 304 to 306 |  |  |  |  |  |
| O=C(Nc1ccc2ncnc(Nc3cccc(Br)c3)c2c1)c1cc(Br)cc(Br)c1O [Compound 20, 3,5-dibromo-N-(4-(3-bromophenylamino)quinazolin-6-yl)-2-hydroxybenzamide] | 1310 ± 29 |  |  | 1800 ± 167 | 1400 ± 23 | 1390 ± 23 |  | 2100 ± 66 | 274 to 276 |  |  |  |  |  |
| O=C(Nc1ccc2ncnc(Nc3cccc(Cl)c3)c2c1)c1ccccc1O [Compound 22, N-(4-(3-chlorophenylamino)quinazolin-6-yl)-2-hydroxybenzamide] | 610 ± 5 |  |  | 1390 ± 54 | 160 ± 7 | 740 ± 6 |  | 840 ± 3 | 117 to 120 |  |  |  |  |  |
| O=C(Nc1ccc2ncnc(Nc3cccc(Cl)c3)c2c1)c1ccc(Cl)cc1O [Compound 23, 4-chloro-N-(4-(3-chlorophenylamino)quinazolin-6-yl)-2-hydroxybenzamide] | 550 ± 7 |  |  | 1360 ± 16 | 320 ± 8 | 840 ± 9 |  | 1200 ± 22 | 211 to 213 |  |  |  |  |  |
| Cc1ccc(C(=O)Nc2ccc3ncnc(Nc4cccc(Cl)c4)c3c2)c(O)c1 [Compound 24, N-(4-(3-chlorophenylamino)quinazolin-6-yl)-2-hydroxy-4-methylbenzamide] | 470 ± 4 |  |  | 1300 ± 12 | 490 ± 3 | 630 ± 4 |  | 2000 ± 182 | 257 to 258 |  |  |  |  |  |
| O=C(Nc1ccc2ncnc(Nc3cccc(Cl)c3)c2c1)c1cc(Br)ccc1O [Compound 25, 5-bromo-N-(4-(3-chlorophenylamino)quinazolin-6-yl)-2-hydroxybenzamide] | 740 ± 13 |  |  | 1690 ± 78 | 580 ± 7 | 880 ± 11 |  | 2600 ± 133 | 299 to 301 |  |  |  |  |  |
| CCOc1ccccc1C(=O)Nc1ccc2ncnc(Nc3cccc(Cl)c3)c2c1 [Compound 26, N-(4-(3-chlorophenylamino)quinazolin-6-yl)-2-ethoxybenzamide] | 820 ± 82 |  |  | 1580 ± 93 | 6300 ± 76 | 760 ± 2 |  | 4100 ± 91 | 111 to 113 |  |  |  |  |  |
| O=C(Nc1ccc2ncnc(Nc3cccc(Br)c3)c2c1)c1ccc(Cl)cc1 [Compound 27, N-(4-(3-bromophenylamino)quinazolin-6-yl)-4-chlorobenzamide] | 1290 ± 76 |  |  | 1780 ± 34 | 7700 ± 88 | 1480 ± 34 |  | 4600 ± 226 | 230 to 232 |  |  |  |  |  |
| C#Cc1cccc(Nc2ncnc3cc(OCCOC)c(OCCOC)cc23)c1 [Erlotinib, reference compound] |  |  |  |  |  |  |  |  |  | 1070 ± 28 | 920 ± 13 |  |  |  |
| CS(=O)(=O)CCNCc1ccc(-c2ccc3ncnc(Nc4ccc(OCc5cccc(F)c5)c(Cl)c4)c3c2)o1 [Lapatinib, reference compound] |  |  |  |  |  |  |  |  |  | 210 ± 3 | 1120 ± 22 | 3.9 ± 0.419 | 720 ± 23 | 2100 ± 34 |
